Here are results for two compounds from patent publication US6809077B2, “Cyclosporin analogs for the treatment of autoimmune diseases” (Enanta Pharmaceuticals, Inc., priority 2001, dated 2004).

Structures are written as SMILES.

In test [1] the test system is NFAT proteins (pNFAT-Luc luciferase) in Chinese hamster ovary cells (CHO cells). The test is described as follows: NFAT reporter gene assay, pNFAT-Luc plasmid in CHO cells. Format: cell-based. Particulars: CHO cells transfected with pNFAT-Luc, treated with 60 ng/ml of PMA and 1 μg/ml of inomycin in combination. The text has this: (§1) NFAT activation follows precisely the activation of calcineurin by increased free calcium levels in the cytoplasm. Researchers from diverse fields are interested in the NFAT family of transcription factors, which are potential targets for newer and safer immunosuppressive drugs. In addition, the activation of NFAT proteins involves various cellular signal transduction pathways, including calcium mobilization and mitogen-activated protein kinase (MAP kinase) pathways linked to T-cell receptors and Ras1. To assist researchers probing the activity of NFAT proteins, Stratagene has developed a PathDetect cis-reporter plasmid, the pNFAT-Luc reporter plasmid (Stratagene, Inc. catalog #219094), containing the NFAT binding site from the human IL-2 gene.2,7-9. The NEAT cis-reporting system includes the transfection-ready pNFAT-Luc reporter plasmid and the pCIS-CK negative control plasmid.
(§2) The backbone of the 5749-base-pair pNFAT-Luc plasmid is the pFR-Luc reporter plasmid of the aforementioned PathDetect trans-reporting system. […]
(§3) Cyclosporin inhibits the activity of calcineurin, a protein phosphatase regulated by intracellular calcium mobilization. […] The inhibition of luciferase expression from pNFAT-Luc in the present model, in both Jurkat and CHO cells induced by PMA and ionomycin, was monitored for cyclosporin (as a positive control) and the cyclosporin analogs of the present invention.

Test [2] deals with NFAT proteins (pNFAT-Luc luciferase) in cells transfected with pNFAT-Luc. The test is described as follows: NFAT reporter gene assay, cells transfected with pNFAT-Luc, single stimulus. The conditions noted are these: treated with either PMA or onomycin alone. Format: cell-based.
Source text: as §1
The backbone of the 5749-base-pair pNFAT-Luc plasmid is the pFR-Luc reporter plasmid of the aforementioned PathDetect trans-reporting system. To this backbone, the GAL4 binding element was replaced with four direct repeats of the NFAT binding sequence (−286 to −257) from the IL-2 gene promoter, the most studied and widely used NFAT binding sequence. […]

Test [3] has as its system NFAT proteins (pNFAT-Luc luciferase) in Jurkat cells. The test is described as follows: NFAT reporter gene assay, pNFAT-Luc plasmid in Jurkat cells. Format: cell-based, human. Particulars: Jurkat cells transfected with pNFAT-Luc, treated with 60 ng/ml of PMA and 1 μg/ml of inomycin in combination.
Source text: as §1, §2, §3
(Reporter assays use an easily measured gene product as a stand-in for the process of interest.)

Take `CCCCCCCCCCCCCC(=O)O[C@@H]1[C@@H](C)[C@@]2(O)[C@@H](C=C(CO)C[C@]3(O)C(=O)C(C)=C[C@@H]23)[C@@H]2C(C)(C)[C@]12OC(C)=O` [PMA]: the figures for the luciferase activity increased in test [1] and in test [3] were 16 fold and 13 fold, respectively. For the same compound, in test [2], the “increase in luciferase activity” value is reported as “did not show a significant increase”.
As for `C[C@H](CCC(=O)O)C[C@H](C)C[C@H](C)C(=O)/C=C(\O)[C@H](C)C[C@H](C)C/C=C/[C@@H](C)[C@@H](O)[C@@H](C)[C@@H](O)C[C@@H]1CC[C@@](C)([C@H]2CC[C@@](C)([C@@H](C)O)O2)O1` [onomycin], in test [2], the “increase in luciferase activity” value is “did not show a significant increase”.
